This note sets out measurements from US20230117034A1, “PYRAZOLOTRIAZINES” (Bayer Aktiengesellschaft, priority 2019, published 2023).

For one assay, the target named is CDK12/CycK (Homo sapiens, UniProt Q9NYV4). The experiment in a line: CDK12/CycK high ATP kinase assay (TR-FRET, 2 mM ATP). Type of assay: biochemical. Particulars: 2 mM ATP (high ATP); median; read-out: CDK12/CyclinK, 2 mM ATP (high ATP), IC50-[mol/l] (median). In short, it runs like this: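 His-tagged human CDK12/CycK (~0.75 nM) pre-incubated 15 min with compound, then 60 min at 22 °C with 2 mM ATP and 1 µM biotinylated peptide (HEPES pH 7.5, 20 mM MgCl2). EDTA stop; phospho-Ser62 antibody/Eu anti-rabbit and streptavidin-XL665 TR-FRET, 665/620 nm ratio normalised to give IC50.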
Sequence of CDK12/CycK (Q9NYV4 with tags, fused parts or gaps): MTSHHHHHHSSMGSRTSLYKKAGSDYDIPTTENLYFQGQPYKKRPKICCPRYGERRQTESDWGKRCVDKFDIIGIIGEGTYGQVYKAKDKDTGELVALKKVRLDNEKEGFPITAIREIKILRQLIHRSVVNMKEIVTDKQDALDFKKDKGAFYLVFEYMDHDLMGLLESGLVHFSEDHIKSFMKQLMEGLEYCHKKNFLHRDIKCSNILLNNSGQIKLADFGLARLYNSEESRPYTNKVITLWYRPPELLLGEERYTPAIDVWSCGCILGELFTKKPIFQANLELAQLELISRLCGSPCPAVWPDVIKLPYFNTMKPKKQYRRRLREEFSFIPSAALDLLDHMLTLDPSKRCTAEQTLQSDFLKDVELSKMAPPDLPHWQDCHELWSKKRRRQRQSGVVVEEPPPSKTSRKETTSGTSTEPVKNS
Sequence of CDK12/CycK (O75909 1-300 partner limits assumed): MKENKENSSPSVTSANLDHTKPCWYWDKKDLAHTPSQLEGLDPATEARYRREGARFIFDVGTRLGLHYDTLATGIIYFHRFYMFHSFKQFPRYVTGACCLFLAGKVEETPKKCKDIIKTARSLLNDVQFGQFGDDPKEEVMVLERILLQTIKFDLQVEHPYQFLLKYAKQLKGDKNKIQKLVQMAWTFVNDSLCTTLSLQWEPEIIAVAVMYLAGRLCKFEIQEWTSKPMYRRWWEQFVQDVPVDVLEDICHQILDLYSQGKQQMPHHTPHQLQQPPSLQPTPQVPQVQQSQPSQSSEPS
On the technique in general: TR-FRET usually uses a lanthanide donor and a delayed reading to cut background.

In assay [1] the test system is BRCA1 mRNA expression in MDA-MB-231 cells. The assay can be described thus: qRT-PCR assay: BRCA1 mRNA expression in MDA-MB-231. It counts as cell-based, human. Particulars: median, read-out: RTqPCR-MDA-MB-231, IC50, BRCA1 (median). In a few lines:
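Cells were seeded at 200,000 cells/well, left 24 h, then exposed continuously to test substances for 24 h. Total RNA (600 ng) was reverse-transcribed to cDNA and amplified by qPCR, and transcript levels were normalised to GAPDH housekeeping expression.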
A general note: Quantitative PCR measures a nucleic acid by following its amplification.

The mark [2] stands for this setting: Homo sapiens, MDA-MB-231, Inhibition of BRCA1 mRNA expression in MDA-MB-231 cells.

Structures are written as SMILES. Read-outs that look alike come from different tables or passages of the source.

With `CC(C)c1cnn2c(NCc3ncc(-c4ccccc4)[nH]3)nc(N3CCOCC3)nc12` [Example 30, 2-(morpholin-4-yl)-N-[(5-phenyl-1H-imidazol-2-yl)methyl]-8-(propan-2-yl)pyrazolo[1,5-a][1,3,5]triazin-4-amine], the IC50 on CDK12/CycK was 2950 nM; in assay [1] (setting [2]), 28.5 nM.

Consider `Clc1cc2nc(CNc3nc(N4CCOCC4)nc4c(Br)cnn34)[nH]c2cc1Cl` [Example 329, 8-bromo-N-[(5,6-dichloro-1H-benzimidazol-2-yl)methyl]-2-(morpholin-4-yl)pyrazolo[1,5-a][1,3,5]triazin-4-amine], for which the IC50 at CDK12/CycK came to 540 nM; in assay [1] (setting [2]), 9.23 nM.

As for `Cc1cc2nc(CNc3nc(N4CCOCC4)nc4c(Br)cnn34)[nH]c2cc1C` [Example 340, 8-bromo-N-[(5,6-dimethyl-1H-benzimidazol-2-yl)methyl]-2-(morpholin-4-yl)pyrazolo[1,5-a][1,3,5]triazin-4-amine], the IC50 is 618 nM on CDK12/CycK and 8.16 nM in assay [1] (setting [2]).

Take `Brc1cnn2c(NCc3nc4ccccc4[nH]3)nc(N3C[C@H]4CC[C@@H]3CO4)nc12` (single isomer, unassigned; enantiomer 2) [Example 391, N-[(1H-benzimidazol-2-yl)methyl]-8-bromo-2-{[1R or S-(1R*,4R*)]-2-oxa-5-azabicyclo[2.2.2]octan-5-yl}pyrazolo[1,5-a][1,3,5]triazin-4-amine (Enantiomer 2)]: the IC50 at CDK12/CycK was 6700 nM; in assay [1] (Inhibition of BRCA1 mRNA expression in MDA-MB-231 cells) it was 3.77 nM.
